Measurements published in ChEMBL document CHEMBL3217408 (Medchemcomm, 2013).
Calls of active or inactive are those of the source. No cut-off for these calls is given here.

Legend:
[1] = biological target: T1, Transcriptional activator protein LasR (Pseudomonas aeruginosa (strain ATCC 15692 / PAO1 / 1C / PRS 101 / LMG12228)) (UniProt P25084); conditions: 12 uM
T1 sequence (whole entry): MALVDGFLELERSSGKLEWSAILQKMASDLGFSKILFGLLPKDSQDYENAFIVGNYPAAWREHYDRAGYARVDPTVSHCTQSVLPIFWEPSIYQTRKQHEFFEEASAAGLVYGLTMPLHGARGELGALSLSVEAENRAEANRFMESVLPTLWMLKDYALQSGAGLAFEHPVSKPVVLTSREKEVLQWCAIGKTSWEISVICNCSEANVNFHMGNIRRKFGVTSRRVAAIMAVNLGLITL
Description: Antagonist activity at LasR in Pseudomonas aeruginosa PAO1 assessed as inhibition of biofilm formation at 12 uM after 20 hrs by crystal violet staining assay

Pseudomonas aeruginosa [2] = assay: Growth inhibition of lasI-rhlI double mutant Pseudomonas aeruginosa PAO-JP2 harboring lasI promoter coupled to the luxCDABE box measured at >100 uM after 5 hrs; type: organism-based; conditions: in vivo
Pseudomonas aeruginosa [3] = assay: Antibacterial activity against Pseudomonas aeruginosa PAO1 assessed as inhibition of pyocyanin production at 100 uM after 20 hrs; type: functional; conditions: PAO1, 20 h
[4] = biological target: T1, Transcriptional activator protein LasR (Pseudomonas aeruginosa (strain ATCC 15692 / PAO1 / 1C / PRS 101 / LMG12228)); assay: Binding affinity to LasR in Pseudomonas aeruginosa PAO1 at 50 to 100 uM after 24 hrs by gel electrophoresis
[5] = biological target: T1, Transcriptional activator protein LasR (Pseudomonas aeruginosa (strain ATCC 15692 / PAO1 / 1C / PRS 101 / LMG12228)); conditions: 200 uM
Description: Inhibition of LasR activation in Pseudomonas aeruginosa PAO1 harboring lasI promoter coupled to the luxCDABE luminescence system assessed as reduction in luminescence measured at 200 uM after 5 hrs

[6] = biological target: T2, HTH-type quorum-sensing regulator RhlR (Pseudomonas aeruginosa (strain ATCC 15692 / PAO1 / 1C / PRS 101 / LMG12228)) (UniProt P54292); assay: Antagonist activity at RhlR in lasI-rhlI double mutant Pseudomonas aeruginosa PAO-JP2 harboring lasI promoter coupled to the luxCDABE box assessed as reduction in C4-HSL induced protein measured at 25 to 200 uM after 5 hrs
T2 sequence (whole entry): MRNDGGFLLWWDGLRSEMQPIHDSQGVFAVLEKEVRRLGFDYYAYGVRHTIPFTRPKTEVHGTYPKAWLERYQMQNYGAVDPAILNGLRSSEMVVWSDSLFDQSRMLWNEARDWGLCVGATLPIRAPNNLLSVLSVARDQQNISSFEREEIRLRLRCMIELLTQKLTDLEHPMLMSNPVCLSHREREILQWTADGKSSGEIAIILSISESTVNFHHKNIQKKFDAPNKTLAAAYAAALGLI

[7] = biological target: T1, Transcriptional activator protein LasR (Pseudomonas aeruginosa (strain ATCC 15692 / PAO1 / 1C / PRS 101 / LMG12228)); conditions: JP2, 200 uM
Description: Agonist activity at LasR in lasI-rhlI double mutant Pseudomonas aeruginosa JP2 harboring lasI promoter coupled to the luxCDABE box assessed as reduction in luminescence measured at 200 uM after 5 hrs

[8] = biological target: T1, Transcriptional activator protein LasR (Pseudomonas aeruginosa (strain ATCC 15692 / PAO1 / 1C / PRS 101 / LMG12228)); assay: Antagonist activity at LasR in Escherichia coli DH5a harboring reporter plasmid lasI-lacZ (pSC11) pJN105L plasmid assessed as inhibition of 3-oxo-C12-HSL induced protein activation by Miller assay method; conditions: Escherichia coli DH5[alpha]
[9] = biological target: T1, Transcriptional activator protein LasR (Pseudomonas aeruginosa (strain ATCC 15692 / PAO1 / 1C / PRS 101 / LMG12228)); conditions: JP2, 50 uM
Description: Antagonist activity at LasR in lasI-rhlI double mutant Pseudomonas aeruginosa JP2 harboring lasI promoter coupled to the luxCDABE box assessed as reduction in C4-HSL induced luminescence measured at 50 uM after 5 hrs

[10] = biological target: T1, Transcriptional activator protein LasR (Pseudomonas aeruginosa (strain ATCC 15692 / PAO1 / 1C / PRS 101 / LMG12228)); assay: Antagonist activity at LasR in Pseudomonas aeruginosa PAO1 assessed as inhibition of biofilm formation at 0.3 to 333 uM after 20 hrs by crystal violet staining assay

| Structure (SMILES) | inhibition [1] | Activity (Pseudomonas aeruginosa [2]) | inhibition at 100 µM (Pseudomonas aeruginosa [3]) [%] | Activity [4] | inhibition [5] | inhibition [6] | inhibition [7] | inhibition [8] | inhibition [9] | inhibition [10] |
| --- | --- | --- | --- | --- | --- | --- | --- | --- | --- | --- |
| C[S+]([O-])CCCCN=C=S (stereo not given) [SULFORAPHANE] | Active | Non-toxic | > 70 | Active | Active | Active | inactive | Dose-dependent effect | Active | – |
| O=C1C=C(Br)/C(=C/Br)O1 | – | – | – | – | – | – | – | – | – | Active |
